The values below are quoted from earlier work in US12329856B2, “Crosslinked hyaluronic acid composition with local anesthetics” (BIOPOLIMERI S.R.L., priority 2021, dated 2025).

For this data set the following is noted: tabulated in the state of the art.

SMILES strings stand for the structures.

Regarding `CCCNC(C)C(=O)Nc1c(C)csc1C(=O)OC` (centres unmarked) [articaine], the “pKa^T (thermodynamic pKa)” value was 7.6. As for `Cc1cccc(C)c1NC(=O)C1CCCCN1C` (centres unmarked) [mepivacaine], the “pKa^T (thermodynamic pKa)” value was 7.8.
